In brackets after ≈: the same amount, converted by molar mass. Values belong to the compound of their own block, whether it stands above or below them.
What was measured:
Assay in all cases: ≥ marks a high value that may be exact or a test limit, other limits are often not marked, values filed in µg/mL are converted to µM
[1] = test system: Pseudomonas aeruginosa R70
[2] = test system: Ralstonia pickettii
[3] = test system: Stenotrophomonas maltophilia
[4] = test system: Pseudomonas aeruginosa M1426
[5] = test system: Pseudomonas aeruginosa M917
[6] = test system: Pseudomonas aeruginosa PAO1
[7] = test system: Pseudomonas aeruginosa M1251
[8] = test system: Staphylococcus aureus
[9] = test system: Candida albicans
[10] = test system: Pseudomonas aeruginosa M76
[11] = test system: Achromobacter xylosoxidans
[12] = test system: Salmonella enterica serovar Typhimurium
[13] = test system: Pseudomonas fluorescens
[14] = test system: Escherichia coli UB1005
[15] = test system: Escherichia coli
[16] = test system: Pseudomonas aeruginosa ATCC 27853
[17] = test system: Salmonella sp.
[18] = test system: Yersinia enterocolitica
[19] = test system: Staphylococcus aureus ATCC 43300
[20] = test system: Staphylococcus aureus ATCC 29213
[21] = test system: Salmonella enterica subsp. enterica serovar Enteritidis
[22] = test system: Escherichia coli ATCC 25922
[23] = test system: Burkholderia cepacia ATCC 25416
[24] = test system: Pseudomonas aeruginosa H547
[25] = test system: Pseudomonas aeruginosa K799
[26] = test system: Salmonella enterica subsp. enterica serovar Typhimurium ATCC 14028s
[27] = test system: Pseudomonas aeruginosa H744
[28] = test system: Pseudomonas aeruginosa Z61
[29] = test system: Escherichia coli 780
[30] = test system: Pseudomonas aeruginosa ATCC 9027
[31] = test system: Pseudomonas aeruginosa 73
[32] = test system: Klebsiella pneumoniae ATCC 700603
[33] = test system: Escherichia coli 804
[34] = test system: Staphylococcus aureus 75
[35] = test system: Staphylococcus epidermidis ATCC 12228
[36] = test system: Acinetobacter baumannii ATCC 19606
[37] = test system: Bacillus subtilis ATCC 23857
[38] = test system: Staphylococcus aureus 113
[39] = test system: Acinetobacter baumannii 97830
[40] = test system: Pseudomonas aeruginosa 50
[41] = test system: Acinetobacter baumannii 9931
[42] = test system: Bifidobacterium longum subsp. infantis
[43] = test system: Fusarium graminearum
[44] = test system: Pseudomonas aeruginosa H374

MIC [15]: 25 µM (≈ 56.1 µg/mL)
MIC [16]: > 50 µM
MIC [17]: 25 µM (≈ 56.1 µg/mL)
MIC [18]: ≥ 50 µM
MIC [19]: > 50 µM
MIC [20]: > 50 µM
MIC [21]: 25 µM (≈ 56.1 µg/mL)
MIC [22]: > 50 µM
SMILES: CC[C@H](C)[C@H](NC(=O)[C@H](CCCCN)NC(=O)[C@@H](NC(=O)[C@H](Cc1c[nH]c2ccccc12)NC(=O)[C@H](Cc1ccccc1)NC(=O)[C@H](CCC(N)=O)NC(=O)[C@H](CC(N)=O)NC(=O)[C@H](CCCN=C(N)N)NC(=O)[C@H](CCCN=C(N)N)NC(=O)[C@H](CCSC)NC(=O)[C@H](CCCCN)NC(=O)[C@H](Cc1c[nH]c2ccccc12)NC(=O)[C@H](CCCCN)NC(=O)[C@@H](N)CCCCN)[C@@H](C)CC)C(=O)N[C@@H](CCC(N)=O)C(=O)N[C@@H](CCCN=C(N)N)C(N)=O [KKWKMRRNQFWIKIQR]

MIC [29]: 16 µM (≈ 23.8 µg/mL)
MIC [30]: 32 µM (≈ 47.6 µg/mL)
MIC [31]: ≥ 64 µM
MIC [32]: 8 µM (≈ 11.9 µg/mL)
MIC [16]: 128 µM (≈ 190 µg/mL)
MIC [33]: ≥ 32 µM
MIC [20]: 4 µM (≈ 5.95 µg/mL)
MIC [34]: 4 µM (≈ 5.95 µg/mL)
MIC [35]: 4 µM (≈ 5.95 µg/mL)
MIC [36]: 16 µM (≈ 23.8 µg/mL)
MIC [37]: 4 µM (≈ 5.95 µg/mL)
MIC [38]: 4 µM (≈ 5.95 µg/mL)
MIC [39]: 8 µM (≈ 11.9 µg/mL)
MIC [40]: ≥ 32 µM
MIC [41]: 16 µM (≈ 23.8 µg/mL)
SMILES: CC(C)C[C@H](NC(=O)[C@H](Cc1c[nH]c2ccccc12)NC(=O)[C@H](CCCN=C(N)N)NC(=O)[C@H](Cc1c[nH]c2ccccc12)NC(=O)[C@H](Cc1c[nH]c2ccccc12)NC(=O)[C@H](Cc1c[nH]c2ccccc12)NC(=O)[C@H](CCCN=C(N)N)NC(=O)[C@H](Cc1c[nH]c2ccccc12)NC(=O)[C@@H](N)CC(C)C)C(N)=O [LWRWWWRWL]

MIC [42]: ≥ 3660 µM
MIC [15]: 3660 µM (≈ 3000 µg/mL)
MIC [8]: 3660 µM (≈ 3000 µg/mL)
SMILES: CC(C)C[C@H](NC(=O)[C@H](CC(N)=O)NC(=O)[C@@H]1CCCN1C(=O)[C@@H](N)CCCN=C(N)N)C(=O)N[C@@H](Cc1cnc[nH]1)C(=O)N1CCC[C@H]1C(=O)N[C@@H](CO)C(=O)O [RPNLHPS]

MIC [43]: 20 µM (≈ 39.8 µg/mL)
SMILES: CSCC[C@H](NC(=O)[C@H](Cc1cnc[nH]1)NC(=O)[C@H](CCCCN)NC(=O)CNC(=O)[C@H](CC(N)=O)NC(=O)[C@H](CCCN=C(N)N)NC(=O)[C@@H](NC(=O)[C@H](Cc1cnc[nH]1)NC(=O)[C@H](CS)NC(=O)[C@H](C)NC(=O)CNC(=O)[C@H](Cc1cnc[nH]1)NC(=O)[C@@H](NC(=O)[C@H](C)NC(=O)CNC(=O)[C@H](CCC(=O)O)NC(=O)[C@@H](N)Cc1c[nH]c2ccccc12)C(C)C)C(C)C)C(=O)N[C@@H](CS)C(=O)O [WEGAVHGACHVRNGKHMC]

The remaining lines, values behind:

SMILES: CC(C)C[C@H](NC(=O)[C@H](C)NC(=O)[C@H](CCCCN)NC(=O)[C@H](CCCCN)NC(=O)[C@H](C)NC(=O)[C@H](CC(C)C)NC(=O)[C@H](CCCCN)NC(=O)[C@H](CCCCN)NC(=O)[C@H](CC(C)C)NC(=O)[C@H](CCCCN)NC(=O)[C@H](CCCCN)NC(=O)[C@H](CC(C)C)NC(=O)[C@H](CC(C)C)NC(=O)[C@H](CCCCN)NC(=O)[C@H](CCCCN)NC(=O)[C@H](CC(C)C)NC(=O)[C@H](C)NC(=O)[C@H](CCCCN)NC(=O)[C@H](CC(C)C)NC(=O)[C@H](C)NC(=O)[C@H](CC(C)C)NC(=O)[C@H](C)NC(=O)[C@@H](N)Cc1ccccc1)C(N)=O [FALALKALKKLLKKLKKLAKKAL]
MIC [1]: 6.2 µM (≈ 16 µg/mL)
MIC [2]: 1.55 µM (≈ 4 µg/mL)
MIC [3]: 1.55 µM (≈ 4 µg/mL)
MIC [4]: 6.2 µM (≈ 16 µg/mL)
MIC [5]: ≥ 49.6 µM
MIC [6]: 3.1 µM (≈ 8 µg/mL)
MIC [7]: 6.2 µM (≈ 16 µg/mL)
MIC [8]: 3.1 µM (≈ 8 µg/mL)
MIC [9]: 24.8 µM (≈ 64 µg/mL)
MIC [10]: 12.4 µM (≈ 32 µg/mL)
MIC [11]: 12.4 µM (≈ 32 µg/mL)
MIC [12]: 3.1 µM (≈ 8 µg/mL)
MIC [13]: 3.1 µM (≈ 8 µg/mL)
MIC [14]: 1.55 µM (≈ 4 µg/mL)

SMILES: CC[C@H](C)[C@H](NC(=O)CNC(=O)[C@@H](NC(=O)[C@H](CCCCN)NC(=O)[C@H](CCCCN)NC(=O)[C@H](Cc1ccccc1)NC(=O)[C@H](CCCCN)NC(=O)[C@H](Cc1c[nH]c2ccccc12)NC(=O)[C@@H](N)CCCCN)[C@@H](C)CC)C(=O)NCC(=O)N[C@@H](C)C(=O)N[C@H](C(=O)N[C@@H](CC(C)C)C(=O)N[C@@H](CCCCN)C(=O)N[C@H](C(=O)N[C@@H](CC(C)C)C(=O)N[C@H](C(=O)N[C@H](C(=O)NCC(=O)N[C@@H](CC(C)C)C(=O)N1CCC[C@H]1C(=O)N[C@@H](C)C(=O)N[C@@H](CC(C)C)C(=O)N[C@@H](CCCCN)C(=O)N[C@@H](CC(C)C)C(=O)N[C@H](C(=O)N[C@@H](CC(C)C)C(=O)N[C@@H](CCCCN)C(=O)O)[C@@H](C)O)[C@@H](C)O)[C@@H](C)O)C(C)C)C(C)C [KWKFKKIGIGAVLKVLTTGLPALKLTLK]
MIC [23]: 20.9 µM (≈ 64 µg/mL)
MIC [24]: 0.652 µM (≈ 2 µg/mL)
MIC [25]: 1.96 µM (≈ 6 µg/mL)
MIC [26]: 1.3 µM (≈ 4 µg/mL)
MIC [27]: 0.326 µM (≈ 1 µg/mL)
MIC [28]: 1.63 µM (≈ 5 µg/mL)
MIC [14]: 0.652 µM (≈ 2 µg/mL)

SMILES: CC[C@H](C)[C@H](NC(=O)[C@H](Cc1ccccc1)NC(=O)[C@H](CO)NC(=O)[C@H](CCCCN)NC(=O)[C@H](Cc1ccccc1)NC(=O)[C@@H](NC(=O)[C@H](CCCCN)NC(=O)[C@@H](N)Cc1c[nH]c2ccccc12)C(C)C)C(=O)N[C@@H](CCCCN)C(=O)N[C@@H](CCCCN)C(=O)N[C@@H](C)C(=O)N[C@@H](CO)C(=O)N[C@@H](CO)C(=O)N[C@@H](Cc1ccccc1)C(=O)N[C@@H](C)C(=O)N[C@@H](CCC(N)=O)C(=O)N[C@@H](CO)C(=O)N[C@H](C(=O)N[C@@H](CC(C)C)C(=O)N[C@@H](CC(=O)O)C(=O)O)C(C)C [WKVFKSFIKKASSFAQSVLD]
MIC [24]: 27.6 µM (≈ 64 µg/mL)
MIC [25]: 27.6 µM (≈ 64 µg/mL)
MIC [26]: 27.6 µM (≈ 64 µg/mL)
MIC [44]: 27.6 µM (≈ 64 µg/mL)
MIC [27]: 27.6 µM (≈ 64 µg/mL)
MIC [28]: 27.6 µM (≈ 64 µg/mL)
MIC [14]: 4.75 µM (≈ 11 µg/mL)

— DBAASP
